The target in series [1] is T1, Muscarinic acetylcholine receptor M1 (Rattus norvegicus, UniProt P08482).
T1 sequence (P08482 whole entry): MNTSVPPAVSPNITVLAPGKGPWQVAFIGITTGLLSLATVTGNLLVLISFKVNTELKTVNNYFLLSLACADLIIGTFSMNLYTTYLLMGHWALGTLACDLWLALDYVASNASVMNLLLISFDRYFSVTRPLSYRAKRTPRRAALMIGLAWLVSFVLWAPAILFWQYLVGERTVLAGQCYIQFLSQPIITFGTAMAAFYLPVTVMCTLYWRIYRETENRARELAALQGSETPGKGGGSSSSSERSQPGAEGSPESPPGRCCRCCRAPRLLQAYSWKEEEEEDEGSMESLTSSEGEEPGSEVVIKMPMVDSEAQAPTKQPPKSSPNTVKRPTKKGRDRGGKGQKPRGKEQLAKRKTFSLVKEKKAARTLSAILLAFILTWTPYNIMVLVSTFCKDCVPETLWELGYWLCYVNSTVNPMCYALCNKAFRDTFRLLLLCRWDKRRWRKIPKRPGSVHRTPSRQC
Kind of series: Binding affinity towards muscarinic receptor of cerebral cortex containing Muscarinic acetylcholine receptor M1. The series is classed as tissue-based.

Series [2] deals with T2, Muscarinic acetylcholine receptor M2 (Rattus norvegicus, UniProt P10980).
T2 sequence (P10980 whole entry): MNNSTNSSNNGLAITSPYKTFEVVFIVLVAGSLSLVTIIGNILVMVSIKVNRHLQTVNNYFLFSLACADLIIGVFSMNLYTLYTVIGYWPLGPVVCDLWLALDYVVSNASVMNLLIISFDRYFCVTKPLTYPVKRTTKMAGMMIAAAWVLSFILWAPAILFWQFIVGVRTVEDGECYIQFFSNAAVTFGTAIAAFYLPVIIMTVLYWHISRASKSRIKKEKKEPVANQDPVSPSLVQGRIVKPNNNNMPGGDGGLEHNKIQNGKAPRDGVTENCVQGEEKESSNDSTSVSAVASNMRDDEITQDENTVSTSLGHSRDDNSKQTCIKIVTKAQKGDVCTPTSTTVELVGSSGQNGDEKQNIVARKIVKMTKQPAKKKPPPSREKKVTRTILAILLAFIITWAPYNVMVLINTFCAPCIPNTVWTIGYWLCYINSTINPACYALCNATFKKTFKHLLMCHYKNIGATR
Kind of series: Binding affinity towards muscarinic receptor of gastric fundus containing Muscarinic acetylcholine receptor M2. The series is classed as tissue-based, Stomach.

Series [3] concerns the target T1, Muscarinic acetylcholine receptor M1. Kind of series: biochemical.
Description: Binding affinity towards Muscarinic acetylcholine receptor M1 of cerebral cortex
A short description of series [4]: Partition coefficient (log P) at pH 7.4. The series is classed as physicochemical. To be noted: octanol/water.

This passage reports IC50 and logD results from ChEMBL document CHEMBL1124130 (J Med Chem, 1988).

Molecules are shown by their SMILES.

For `CN1CCC(CC(=O)N2c3ccccc3C(=O)Nc3cccnc32)C1` (stereo not drawn), the figures for the IC50 in series [1] and in series [2] were 20 nM and 50 nM, respectively.

Take `CN1CCC(NC(=O)N2c3ccccc3C(=O)Nc3cccnc32)CC1`: the concentration for half-maximal inhibition (IC50) – broadly, the concentration at which inhibition is half-maximal – in series [3] was 200 nM; in series [2] it was 1200 nM.

On to `CN1CCN(CC(=O)N2c3ccccc3NC(=O)c3cccnc32)CC1`, for which the logD (usually the decadic logarithm of the distribution of all forms, ionised or not, between an organic phase and buffer at a given pH) in series [4] is -0.42. The IC50 in series [3] turned out to be 300 nM; in series [2], 3000 nM.

With `CN(C)CCCC(=O)N1c2ccccc2C(=O)Nc2cccnc21`, the values for the IC50 in series [1] and in series [2] were 50 nM and 100 nM, respectively.

In the case of `CN(C)CCCCC(=O)N1c2ccccc2C(=O)Nc2cccnc21`, the IC50 in series [3] turned out to be 600 nM; in series [2], 500 nM.

In the case of `CN1CCC(OC(=O)N2c3ccccc3C(=O)Nc3cccnc32)CC1`, the 50% inhibitory concentration (IC50) is 100 nM in series [3] and 900 nM in series [2].

Regarding `CN1CCCCC1CC(=O)N1c2ccccc2C(=O)Nc2cccnc21` (stereo not drawn), the half-inhibitory concentration (IC50) is 10 nM in series [1] and 8 nM in series [2].

In the case of `CN(C)CC(=O)N1c2ccccc2C(=O)Nc2cccnc21`, the half-inhibitory concentration (IC50) stood at 1500 nM in series [3] and 700 nM in series [2].

With `CN1CCCC(CC(=O)N2c3ccccc3C(=O)Nc3cccnc32)C1` (stereo not drawn), the IC50 is 100 nM in series [1] and 120 nM in series [2].

`CN1CCC(CC(=O)N2c3ccccc3C(=O)Nc3cccnc32)CC1`: the IC50 in series [3] stood at 70 nM; in series [2], 700 nM.

In the case of `CN(C)CCC(=O)N1c2ccccc2C(=O)Nc2cccnc21`, the IC50 in series [1] and in series [2] was 200 nM in each case.

For the molecule `CN1CCN(CC(=O)N2c3ccccc3NC(=O)c3cscc32)CC1`, the logD in series [4] was -0.15. Also, the results for the concentration for half-maximal inhibition (IC50) in series [3] and in series [2] were 50 nM and 350 nM, respectively.

With `CN1CCN(CCC(=O)N2c3ccccc3C(=O)Nc3cccnc32)CC1`, the IC50 in series [1] came out at 10000 nM; in series [2], 12000 nM.

For the molecule `CN1CCCC(CC(=O)N2c3ccccc3C(=O)Nc3cccnc32)CC1` (stereo not drawn), the 50% inhibitory concentration (IC50) stood at 100 nM in series [1] and 150 nM in series [2].

Regarding `CN1CCN(CC(=O)N2c3ccccc3C(=O)Nc3cccnc32)CC1` [PIRENZEPINE], the logD in series [4] was -0.64.

Regarding `CN1CCN(NC(=O)N2c3ccccc3C(=O)Nc3cccnc32)CC1`, the IC50 in series [3] came out at 60 nM; in series [2], 900 nM.

In turn, `CN1CCN(CC(=O)N2c3ccccc3NC(=O)c3ccccc32)CC1` registered a logD in series [4] of 0.11. Further, the half-maximal inhibitory concentration (IC50) in series [3] was determined as 23 nM; in series [2] it was 100 nM.

On to `CN1CCN(C(=O)N2c3ccccc3C(=O)Nc3cccnc32)CC1`, for which the IC50 in series [3] was determined as 150 nM; in series [2], 600 nM.
